The results in this text go back to patent publication US6436942B1, “Enantiomers of 1[(4-chloro-phenyl) phenylmethyl]-4-[(4-methylphenyl) sulfony]piperazine” (UCB, S.A., priority 1993, dated 2002).

Series [1] concerns the target T1, rat cortex histamine H1 receptor (Rattus norvegicus, UniProt P31390).
T1 construct: the samples containing 0.5 mg of cortex membrane protein; from tissue; host or cells: cerebral cortex membranes of male Sprague-Dawley rats
As to the kind of experiment: Affinity towards the histamine H1 receptor ([3H]mepyramine competitive binding). The settings on record: cologarithm of Ki, mean ± deviation (n=2); [3H]mepyramine 4.5×10^−9 mole/l, rat cortex membranes. The procedure:
Cerebral cortexes from male Sprague-Dawley rats are homogenized in 2 ml per cortex of a 20 mM Tris-HCl buffer (pH 7.4) containing 250 mM sucrose. The homogenates are centrifuged at 30,000 g for 30 minutes at 4° C. and the centrifugation pellets are resuspended in the same fresh buffer and preserved in liquid nitrogen. […] The bound [^3H]mepyramine is separated from the free radioligand by rapid filtration of the sample through a Whatman GF/C filter, previously impregnated for at least 2 hours with a 0.1% solution of polyethyleneimine, in order to reduce the possibility of non-specific binding of the radioligand with other proteins. […] The radioactivity thereof is then measured using a β particle Tri-carb 1090 scintillation counter (Camberra-Packard, Belgium). Non-specific binding has been estimated in the presence of a 10 μM aqueous solution of cetirizine and represents 30% of the total binding. […] DE LEAN et al., Mol. Pharmacol., 21 (1982), 5-16) and their inhibition constants (Ki) are calculated by means of the CHENG and PRUSOFF equation (Y. C. CHENG and W. H. PRUSOFF, Biochem. Pharmacol., 22 (1973), 3099-3108). Table III below gives the values of pKi (cologarithm of Ki) calculated from Ki (mean value±deviation with respect to the mean (n=2)), for the compounds tested.

Series [2] deals with mice. Kind of series: Toxicity: lethal dose in mice after intraperitoneal injection. The settings on record: dose causing death in 2 out of 3 mice. The class given is in vivo.
The subject of series [3] is isolated guinea pig trachea. Kind of series: Peripheral antihistaminic properties: inhibition of histamine-induced contraction of isolated guinea pig trachea. The settings on record: mean ± standard deviation, histamine-contracted guinea pig trachea; for pD2′: non-competitive inhibition; for pA2: competitive inhibition. The procedure:
Tracheas of Dunkin-Hartley guinea pigs of both sexes (weight: 250-500 g) are excised and cut into four fragments of three segments of cartilage each. These fragments are immersed in a Krebs-Heinseleit solution at 37° C. containing 10^−7 mole/l of atropine and 10^−5 mole/l of indomethacin and are stretched with a weight of 1 g. The solution is aerated with a current of oxygen containing 5% carbon dioxide. Each change in tension, is recorded with an isometric force indicator K 30 (from Hugo Sachs Elektronik) coupled to an amplifier and a Sanborn 7700 recorder (from Hewlett Packard). The preparation (i.e. trachea fragment) so obtained is allowed to stabilize for one hour during which the base line for the tension is readjusted if necessary.
After washing and stabilization, a cumulative curve showing the effects of histamine, as a function of its concentration (10^−6, 10^−5 and 10^−4 mole/l) is plotted as a control.
For the same preparation, four further cumulative curves showing the effects of histamine as a function of its concentration are then recorded at four increasing concentrations of each compound to be tested.
The compounds to be tested are incorporated in the medium five minutes before the histamine. Between each measurement, the preparations are washed at least four times with an interval of five minutes between each washing. Each compound is tested on at least 6 trachea fragments. When the last curve is plotted, additional concentrations of 3.2×10^−4 and 10^−3 mole/l of histamine are added in order to determine whether the antagonism is competitive or not.

In series [4] the test system is cutaneous reaction induced by histamine. Kind of series: Inhibition of the cutaneous reaction induced by histamine in dogs. The class given is in vivo, dog. The following applies: for Area of wheals: nine Beagle dogs, mean ± SD; for Wheal area as percent of reference: with respect to reference area (100%); for inhibition at 0.15 mg/kg: Canis lupus familiaris. The protocol:
The dog is considered, among the animal species, to be the species having a sensitivity to histamine relatively close to that of man.
In this test, nine Beagle dogs are used, having an average weight of 12.6 kg and of about two years of age and of which the abdomens have been locally shaved. 50 μl of a 0.9% aqueous solution of sodium chloride, containing 10 μg/ml of histamine, is injected intradermally into the shaved area. Simultaneously, a solution of Evans blue dye (60 mg/ml in a 0.9% aqueous solution of sodium chloride), is administered by intravenous injection to each dog at a dose of 0.1 ml/kg. An allergic reaction develops at the intradermal injection site and there appears a wheal, the area of which is measured exactly 30 minutes after the two injections. This area is taken as the reference. area (100%)
The compound to be tested is then administered orally, at a dose of 0.15 mg/kg (0.32×10^−6 mole/kg). 0.5, 1.5, 3, 6, 9, 12, 24 and 32 hours after administration of the compound to be tested, new wheals are induced at different abdominal locations by injecting histamine. Each time, the area of the induced wheal is measured 30 minutes after the injection of histamine.
The antihistaminic activity of a compound on the cutaneous allergic reaction is determined by measuring the reduction in the area of the induced wheals, following administration of the compound, with respect to the area of the reference wheal, and then expressed in percent.

The mark [5] stands for this setting: 0.5 hours after 0.15 mg/kg oral.
Setting [6] is: 1.5 hours after 0.15 mg/kg oral.

Each structure is given as a SMILES string. Structures can show the parent of a compound that is named as a salt. Where two headings read alike, the source gives them in different places.

T1 sequence (P31390 whole entry): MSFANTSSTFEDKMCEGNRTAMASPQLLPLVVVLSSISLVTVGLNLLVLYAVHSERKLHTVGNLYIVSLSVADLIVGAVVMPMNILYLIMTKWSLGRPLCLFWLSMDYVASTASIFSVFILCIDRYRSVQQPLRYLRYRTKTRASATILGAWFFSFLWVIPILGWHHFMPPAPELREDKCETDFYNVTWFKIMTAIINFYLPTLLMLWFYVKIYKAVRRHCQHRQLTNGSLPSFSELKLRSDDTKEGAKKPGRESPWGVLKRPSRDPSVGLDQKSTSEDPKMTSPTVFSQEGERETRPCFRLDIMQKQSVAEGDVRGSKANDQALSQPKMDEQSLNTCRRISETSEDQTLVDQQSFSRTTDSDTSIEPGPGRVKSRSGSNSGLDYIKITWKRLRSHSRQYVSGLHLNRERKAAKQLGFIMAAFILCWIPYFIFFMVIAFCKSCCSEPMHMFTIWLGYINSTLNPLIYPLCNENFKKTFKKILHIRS

What is called Ki is the equilibrium dissociation constant of an inhibitor or competing ligand from its target. Read a low Ki as tighter binding. Take `Cc1cccc(CN2CCN(C(c3ccccc3)c3ccc(Cl)cc3)CC2)c1` (single isomer, unassigned) [D, dextrorotatory dihydrochloride of 1-[(4-chlorophenyl)phenylmethyl]-4-[(3-methylphenyl)methyl]piperazine]: in series [1], affinity was put at a Ki of 63.1 nM. In series [2], this compound returned a Lethal dose above 0.001 mol/kg.

For `NC(=O)COCCN1CCN(C(c2ccccc2)c2ccc(Cl)cc2)CC1` (single isomer, unassigned; (-)) [K, (−)-2-[2-[4-[(4-chlorophenyl)phenylmethyl]-1-piperazinyl]ethoxy]acetamide], in series [1], the inhibitory constant (Ki) was 2.51 nM. The compound also yielded a Lethal dose in series [2] of 0.0003 mol/kg. In addition, in series [3], the “pD2′” value worked out at 6.3 ± 0.2.

On to `CC(C)(C)c1ccc(CN2CCN(C(c3ccccc3)c3ccc(Cl)cc3)CC2)cc1` (single isomer, unassigned) [E, levorotatory dihydrochloride of 1-[(4-tert-butylphenyl)methyl]-4-[(4-chlorophenyl)phenylmethyl]piperazine], for which, in series [1], the affinity corresponds to a Ki of 1260 nM. For the same compound, in series [2], the Lethal dose is 0.001 mol/kg.

As a reminder, the pA2 is the negative logarithm of the molar antagonist concentration that doubles the agonist concentration needed for the same response. With `O=C(O)COCCN1CCN(C(c2ccccc2)c2ccc(Cl)cc2)CC1` (single isomer, unassigned) [O, levorotatory dihydrochloride of 2-[2-[4-[(4-chlorophenyl)phenylmethyl]-1-piperazinyl]ethoxy]acetic acid], the Ki in series [1] is 39.8 nM. The same compound yielded a pA2 in series [3] of 6.6 ± 0.3.

`NC(=O)COCCN1CCN(C(c2ccccc2)c2ccc(Cl)cc2)CC1` (single isomer, unassigned; (+)) [Compound L, (+)-2-[2-[4-[(4-chlorophenyl)phenylmethyl]-1-piperazinyl]ethoxy]acetamide] gave a Ki in series [1] of 158 nM. Also, in series [2], the Lethal dose amounted to 0.001 mol/kg. The same compound came in with a pA2 in series [3] of 6.4 ± 0.2.

The compound `Clc1ccc(C(c2ccccc2)N2CCNCC2)cc1` (single isomer, unassigned; (-)) [A, (−)-1-[(4-chlorophenyl)phenylmethyl]piperazine] had a pA2 in series [3] of 5.7 ± 0.4.

`CC(C)(C)c1ccc(CN2CCN(C(c3ccccc3)c3ccc(Cl)cc3)CC2)cc1` (single isomer, unassigned) [F, dextrorotatory dihydrochloride of 1-[(4-tert-butylphenyl)methyl]-4-[(4-chlorophenyl)phenylmethyl]piperazine] gave a Ki in series [1] of 631 nM. In series [2], the Lethal dose was above 0.001 mol/kg.

With `Cc1cccc(CN2CCN(C(c3ccccc3)c3ccc(Cl)cc3)CC2)c1` (single isomer, unassigned) [C, levorotatory dihydrochloride of 1-[(4-chlorophenyl)phenylmethyl]-4-[(3-methylphenyl)methyl]piperazine], affinity in series [1] was put at a Ki of 631 nM. In series [2], this compound yielded a Lethal dose above 0.001 mol/kg.

As for `COC(=O)COCCN1CCN(C(c2ccccc2)c2ccc(Cl)cc2)CC1` (single isomer, unassigned) [N, dextrorotatory dimaleate of methyl 2-[2-[4-[(4-chlorophenyl)phenylmethyl]-1-piperazinyl]ethoxy]acetate], the affinity in series [1] corresponds to a Ki of 79.4 nM.

The compound `COC(=O)COCCN1CCN(C(c2ccccc2)c2ccc(Cl)cc2)CC1` (single isomer, unassigned) [M, levorotatory dimaleate of methyl 2-[2-[4-[(4-chlorophenyl)phenylmethyl]-1-piperazinyl]ethoxy]acetate] had a Ki in series [1] of 3.16 nM.

`OCCOCCN1CCN(C(c2ccccc2)c2ccc(Cl)cc2)CC1` (single isomer, unassigned) [G, levorotatory dihydrochloride of 2-[2-[4-[(4-chlorophenyl)phenylmethyl]-1-piperazinyl]ethoxy]ethanol] had a Ki in series [1] of 25.1 nM. Moreover, the Lethal dose in series [2] was found to be 0.0006 mol/kg. In addition, the pA2 in series [3] is listed as 6.5 ± 0.3.

Compound `Clc1ccc(C(c2ccccc2)N2CCNCC2)cc1` (single isomer, unassigned; (+)) [B, (+)-1-[(4-chlorophenyl)phenylmethyl]piperazine] yielded a pA2 in series [3] of 5.0 ± 0.1.

With `OCCOCCOCCN1CCN(C(c2ccccc2)c2ccc(Cl)cc2)CC1` (single isomer, unassigned) [J, dextrorotatory dihydrochloride of 2-[2-[2-[4-[(4-chlorophenyl)phenylmethyl]-1-piperazinyl]ethoxy]ethoxy]ethanol], the affinity in series [1] corresponds to a Ki of 2.51 nM. For the same compound, the Lethal dose in series [2] was 0.0001 mol/kg. Moreover, the “pD2′” value in series [3] is 6.0 ± 0.3.

As usually defined, the inhibition is the change of the read-out against control, counted positive when it falls. As to `O=C(O)COCCN1CCN(C(c2ccccc2)c2ccc(Cl)cc2)CC1` (single isomer, unassigned) [P, dextrorotatory dihydrochloride of 2-[2-[4-[(4-chlorophenyl)phenylmethyl]-1-piperazinyl]ethoxy]acetic acid], the Area of wheals was 65 ± 10 mm^2 in series [4] (setting [5]); 44 ± 12 mm^2 in series [4] (setting [6]); 33 ± 10 mm^2 in series [4] (3 hours after 0.15 mg/kg oral); 41 ± 13 mm^2 in series [4] (6 hours after 0.15 mg/kg oral); 41 ± 10 mm^2 in series [4] (9 hours after 0.15 mg/kg oral); 41 ± 10 mm^2 in series [4] (12 hours after 0.15 mg/kg oral). Moreover, the Area of wheals in series [4] (24 hours after 0.15 mg/kg oral) was 45 ± 5 mm^2; in series [4] (32 hours after 0.15 mg/kg oral) it was 51 ± 5 mm^2. The “Wheal area as percent of reference” value in series [4] (setting [5]) is 85%; in series [4] (setting [6]), 58%; in series [4] (3 hours after 0.15 mg/kg oral) it was 43%; in series [4] (6 hours after 0.15 mg/kg oral) it was 54%; in series [4] (9 hours after 0.15 mg/kg oral) it was 54%; in series [4] (12 hours after 0.15 mg/kg oral), 54%. Also, the “Wheal area as percent of reference” value in series [4] (24 hours after 0.15 mg/kg oral) is 59%; in series [4] (32 hours after 0.15 mg/kg oral) it was 67%. The “reduction in the area of the wheals” value in series [4] (30 minutes after administration, 0.15 mg/kg oral, dogs) was determined as 15%. Further, the inhibition at 0.15 mg/kg in series [4] (3 h, after three hours, 0.15 mg/kg oral, dogs, read-out: Maximum inhibition (of wheal area)) turned out to be 57%; in series [4] (after 32 hours, 0.15 mg/kg oral, dogs, read-out: inhibition (of wheal area), statistically significant) it was 33%. The compound further had a Ki in series [1] of 6.31 nM. The “pD2′” value in series [3] is listed as 6.3 ± 0.2.
